Active and inactive are the calls of the source. No cut-off for these calls is given here.
Experiments:
Macrophage [1] = experiment: Antiinflammatory activity against mouse primary bone marrow derived macrophages assessed as inhibition of LPS-induced IL-6 expression by ELISA; type: functional, tissue-based; settings: dose 10.0 µM
Macrophage [2] = experiment: Antiinflammatory activity against mouse primary bone marrow derived macrophages assessed as inhibition of LPS-induced IL-1beta expression at 10 uM by ELISA; type: functional, tissue-based
Macrophage [3] = experiment: Antiinflammatory activity against mouse primary bone marrow derived macrophages assessed as inhibition of LPS-induced TNF expression at 10 uM by ELISA; type: functional, tissue-based
THP-1 [4] = experiment: Antiinflammatory activity against human THP-1 derived macrophages assessed as inhibition of LPS-induced IL6 expression by ELISA; type: functional, cell-based; settings: dose 10.0 µM
THP-1 [5] = experiment: Antiinflammatory activity against human THP-1 derived macrophage assessed as inhibition of LPS-induced IL-1beta expression at 10 uM by ELISA; type: functional, cell-based
THP-1 [6] = experiment: Antiinflammatory activity against human THP-1 derived macrophage assessed as inhibition of LPS-induced TNF expression at 10 uM by ELISA; type: functional, cell-based
Mus musculus [7] = experiment: Anti-colitis activity against DSS-induced IBD C57BL/6 mouse model assessed as improvement in DSS induced weight loss at 5 to 10 mg/kg, po administered daily and measured after 5 to 8 days; type: functional, organism-based; settings: dose 5-10 mg/kg, time 5-8 day
Mus musculus [8] = experiment: Anti-colitis activity against DSS-induced IBD C57BL/6 mouse model assessed as reduction in fecal occult blood score at 5 to 10 mg/kg, po administered daily and measured after 9 days; type: functional, organism-based; settings: dose 5-10 mg/kg, time 9.0 day
Mus musculus [9] = experiment: Anti-colitis activity against DSS-induced IBD C57BL/6 mouse model assessed as improvement in DSS reduced colon length at 5 to 10 mg/kg, po administered daily and measured after 9 days; type: functional, organism-based; settings: dose 5-10 mg/kg, time 9.0 day
Mus musculus [10] = experiment: Anti-colitis activity against DSS-induced IBD C57BL/6 mouse model assessed as reduction in IL-6 transcription level in colon at 5 to 10 mg/kg, po administered daily by RT-qPCR analysis; type: functional, organism-based; settings: dose 5-10 mg/kg
Mus musculus [11] = experiment: Anti-colitis activity against DSS-induced IBD C57BL/6 mouse model assessed as reduction in IL-1beta transcription level in colon at 5 to 10 mg/kg, po administered daily by RT-qPCR analysis; type: functional, organism-based; settings: dose 5-10 mg/kg
Mus musculus [12] = experiment: Anti-colitis activity against DSS-induced IBD C57BL/6 mouse model assessed as reduction in TNF transcription level in colon at 5 to 10 mg/kg, po administered daily by RT-qPCR analysis; type: functional, organism-based; settings: dose 5-10 mg/kg
Mus musculus [13] = experiment: Anti-colitis activity against DSS-induced IBD C57BL/6 mouse model assessed as reduction in serum IL-6 expression at 5 to 10 mg/kg, po administered daily by ELISA; type: functional, organism-based; settings: dose 5-10 mg/kg
Mus musculus [14] = experiment: Anti-colitis activity against DSS-induced IBD C57BL/6 mouse model assessed as reduction in serum IL-1beta expression at 5 to 10 mg/kg, po administered daily by ELISA; type: functional, organism-based; settings: dose 5-10 mg/kg
Mus musculus [15] = experiment: Anti-colitis activity against DSS-induced IBD C57BL/6 mouse model assessed as reduction in serum TNF expression at 5 to 10 mg/kg, po administered daily by ELISA; type: functional, organism-based; settings: dose 5-10 mg/kg
[16] = molecular target: NT-3 growth factor receptor (Homo sapiens) (UniProt Q16288); experiment: Inhibition of recombinant human TRKC (510 to end residues) assessed as residual activity at 10 uM using GEEPLYWSFPAKKK as substrate incubated for 40 mins in presence of [gamma33P]ATP by scintillation counting based radiometry assay relative to control
Mus musculus [17] = experiment: Anti-colitis activity against DSS-induced IBD C57BL/6 mouse model assessed as reduction in inflammatory cell infiltration in colon at 5 to 10 mg/kg, po administered daily measured after 9 days by HE staining based analysis; type: functional, organism-based; settings: dose 5-10 mg/kg, time 9.0 day
Mus musculus [18] = experiment: Anti-colitis activity against DSS-induced IBD C57BL/6 mouse model assessed as reduction in severe epithelial destruction in colon at 5 to 10 mg/kg, po administered daily measured after 9 days by HE staining based analysis; type: functional, organism-based; settings: dose 5-10 mg/kg, time 9.0 day
Mus musculus [19] = experiment: Anti-colitis activity against DSS-induced IBD C57BL/6 mouse model assessed as reduction in crypt loss in colon at 5 to 10 mg/kg, po administered daily measured after 9 days by HE staining based analysis; type: functional, organism-based; settings: dose 5-10 mg/kg, time 9.0 day

NT-3 growth factor receptor (Homo sapiens), sequence (Q16288 32-839 limits assumed): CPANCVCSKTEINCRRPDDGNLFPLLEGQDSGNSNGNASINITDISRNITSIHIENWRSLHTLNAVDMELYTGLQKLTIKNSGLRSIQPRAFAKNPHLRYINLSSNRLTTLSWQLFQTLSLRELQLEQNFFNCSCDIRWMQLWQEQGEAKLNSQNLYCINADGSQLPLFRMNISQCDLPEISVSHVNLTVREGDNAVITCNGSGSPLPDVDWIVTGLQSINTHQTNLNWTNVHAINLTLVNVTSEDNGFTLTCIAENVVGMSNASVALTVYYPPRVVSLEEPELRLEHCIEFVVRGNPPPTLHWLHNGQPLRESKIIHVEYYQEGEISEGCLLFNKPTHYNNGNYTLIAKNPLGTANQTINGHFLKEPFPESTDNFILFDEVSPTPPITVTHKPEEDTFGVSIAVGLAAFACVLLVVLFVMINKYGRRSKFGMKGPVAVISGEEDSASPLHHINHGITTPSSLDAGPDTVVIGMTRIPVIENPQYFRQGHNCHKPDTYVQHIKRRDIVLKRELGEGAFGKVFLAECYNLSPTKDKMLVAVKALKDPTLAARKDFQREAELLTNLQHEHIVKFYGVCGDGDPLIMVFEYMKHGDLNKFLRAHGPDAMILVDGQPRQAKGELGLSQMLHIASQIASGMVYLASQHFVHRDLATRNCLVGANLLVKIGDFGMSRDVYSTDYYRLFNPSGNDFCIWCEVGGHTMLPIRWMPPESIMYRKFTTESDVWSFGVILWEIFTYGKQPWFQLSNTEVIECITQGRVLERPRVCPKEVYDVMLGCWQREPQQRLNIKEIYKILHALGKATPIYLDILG

Q: Which results are given for `CC(=O)Nc1ccc(-n2nc3c(=O)[nH]nc(N)c3c2-c2oc3cc(C(=O)Nc4cccc(C(F)(F)F)c4)ccc3c2C)cc1`?
A: Activity (Macrophage [1]): Dose-Dependent Effect; Activity (Macrophage [2]): Active; Activity (Macrophage [3]): Active; Activity (THP-1 [4]): Dose-Dependent Effect; Activity (THP-1 [5]): Active; Activity (THP-1 [6]): Active; Activity (Mus musculus [7]): Active; Activity (Mus musculus [8]): Active; Activity (Mus musculus [9]): Active; Activity (Mus musculus [10]): Active; Activity (Mus musculus [11]): Active; Activity (Mus musculus [12]): Active; Activity (Mus musculus [13]): Active; Activity (Mus musculus [14]): Active; Activity (Mus musculus [15]): Active; Activity [16]: 45%; Activity (Mus musculus [17]): Active; Activity (Mus musculus [18]): Active; Activity (Mus musculus [19]): Active
